# Key:
# Caspase 6 [1] = molecular target: T1, Caspase 6 (Homo sapiens, UniProt P55212); conditions: read-out: Ki caspase 6; cited from earlier work
# T1 sequence (P55212 24-179 limits assumed): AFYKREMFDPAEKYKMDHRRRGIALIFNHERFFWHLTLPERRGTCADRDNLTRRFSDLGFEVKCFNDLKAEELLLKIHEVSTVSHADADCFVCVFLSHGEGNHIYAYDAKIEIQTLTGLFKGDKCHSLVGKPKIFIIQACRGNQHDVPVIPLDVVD
# T1 sequence (P55212 194-293 limits assumed): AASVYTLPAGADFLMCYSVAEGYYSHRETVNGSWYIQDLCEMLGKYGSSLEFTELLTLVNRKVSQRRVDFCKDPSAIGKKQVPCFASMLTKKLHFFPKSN
# Caspase 9 [2] = molecular target: T2, Caspase 9 (Homo sapiens, UniProt P55211); assay: Reaction Biology caspase panel; format: biochemical; conditions: read-out: Caspase 9 IC50; (Z-LEHD)2-R110 substrate; three separate experiments
# T2 sequence (P55211 1-315 limits assumed): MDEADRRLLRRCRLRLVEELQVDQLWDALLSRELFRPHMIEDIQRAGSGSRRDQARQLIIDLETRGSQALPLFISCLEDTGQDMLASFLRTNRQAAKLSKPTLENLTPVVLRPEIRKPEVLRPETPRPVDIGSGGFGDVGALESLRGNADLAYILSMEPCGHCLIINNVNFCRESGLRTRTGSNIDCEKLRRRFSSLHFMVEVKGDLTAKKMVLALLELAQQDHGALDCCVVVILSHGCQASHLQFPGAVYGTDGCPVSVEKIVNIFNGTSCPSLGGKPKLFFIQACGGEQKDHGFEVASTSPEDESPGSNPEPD
# T2 sequence (P55211 331-416 limits assumed): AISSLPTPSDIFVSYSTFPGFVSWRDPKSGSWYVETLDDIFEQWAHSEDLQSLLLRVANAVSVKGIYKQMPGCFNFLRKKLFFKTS
# caspase 1 = molecular target: T3, caspase 1 (Homo sapiens, UniProt P29466); conditions: read-out: Ki caspase 1; cited from earlier work
# T3 sequence (P29466 120-297 limits assumed): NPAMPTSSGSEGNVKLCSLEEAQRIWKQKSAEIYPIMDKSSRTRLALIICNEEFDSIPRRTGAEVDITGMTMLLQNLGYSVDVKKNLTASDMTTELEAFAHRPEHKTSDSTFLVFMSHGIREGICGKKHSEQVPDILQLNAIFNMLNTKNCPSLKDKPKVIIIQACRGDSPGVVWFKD
# T3 sequence (P29466 317-404 limits assumed): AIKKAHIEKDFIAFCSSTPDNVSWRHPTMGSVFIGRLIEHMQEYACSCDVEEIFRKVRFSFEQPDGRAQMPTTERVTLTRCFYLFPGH
# Caspase 6 [3] = molecular target: T1, Caspase 6; assay: Reaction Biology caspase panel; format: biochemical; conditions: read-out: Caspase 6 IC50; (Z-DEVD)2-R110 substrate; three separate experiments
# Caspase 10 = molecular target: T4, Caspase 10 (Homo sapiens, UniProt Q92851); assay: Reaction Biology caspase panel; format: biochemical; conditions: read-out: Caspase 10 IC50; (Z-LEHD)2-R110 substrate; three separate experiments
# T4 sequence (Q92851 220-415 limits assumed): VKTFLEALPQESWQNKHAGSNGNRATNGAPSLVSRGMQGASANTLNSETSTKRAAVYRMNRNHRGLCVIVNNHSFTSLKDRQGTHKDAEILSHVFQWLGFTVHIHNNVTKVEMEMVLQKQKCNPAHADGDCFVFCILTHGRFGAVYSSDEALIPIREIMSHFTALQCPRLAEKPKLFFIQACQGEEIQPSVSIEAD
# T4 sequence (Q92851 416-521 limits assumed): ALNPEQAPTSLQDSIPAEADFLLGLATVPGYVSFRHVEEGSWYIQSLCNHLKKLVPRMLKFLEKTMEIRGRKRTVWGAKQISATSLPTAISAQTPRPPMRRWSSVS
# Caspase 3 [4] = molecular target: T5, Caspase 3 (Homo sapiens, UniProt P42574); assay: Reaction Biology caspase panel; format: biochemical; conditions: read-out: Caspase 3 IC50; (Z-DEVD)2-R110 substrate; three separate experiments
# T5 sequence (P42574 29-175 limits assumed): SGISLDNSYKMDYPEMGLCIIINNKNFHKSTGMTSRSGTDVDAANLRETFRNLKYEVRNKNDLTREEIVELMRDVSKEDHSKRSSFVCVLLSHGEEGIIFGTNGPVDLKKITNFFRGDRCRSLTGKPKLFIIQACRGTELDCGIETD
# T5 sequence (P42574 176-277 limits assumed): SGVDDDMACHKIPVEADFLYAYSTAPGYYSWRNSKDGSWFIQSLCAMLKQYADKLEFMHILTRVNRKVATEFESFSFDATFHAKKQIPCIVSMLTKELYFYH
# Caspase 5 = molecular target: T6, Caspase 5 (Homo sapiens, UniProt P51878); assay: Reaction Biology caspase panel; format: biochemical; conditions: read-out: Caspase 5 IC50; (Z-LEHD)2-R110 substrate; three separate experiments
# T6 sequence (P51878 137-327 limits assumed): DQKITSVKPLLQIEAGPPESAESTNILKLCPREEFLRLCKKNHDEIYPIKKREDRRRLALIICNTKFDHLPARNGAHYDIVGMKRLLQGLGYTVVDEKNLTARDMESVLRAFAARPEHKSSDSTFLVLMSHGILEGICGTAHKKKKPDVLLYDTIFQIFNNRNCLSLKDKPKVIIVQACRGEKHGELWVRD
# T6 sequence (P51878 347-434 limits assumed): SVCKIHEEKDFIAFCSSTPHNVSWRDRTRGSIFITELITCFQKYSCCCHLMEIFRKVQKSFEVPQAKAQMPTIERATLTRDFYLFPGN
# Caspase 4 = molecular target: T7, Caspase 4 (Homo sapiens, UniProt P49662); conditions: read-out: Ki caspase 4; cited from earlier work
# T7 sequence (P49662 81-270 limits assumed): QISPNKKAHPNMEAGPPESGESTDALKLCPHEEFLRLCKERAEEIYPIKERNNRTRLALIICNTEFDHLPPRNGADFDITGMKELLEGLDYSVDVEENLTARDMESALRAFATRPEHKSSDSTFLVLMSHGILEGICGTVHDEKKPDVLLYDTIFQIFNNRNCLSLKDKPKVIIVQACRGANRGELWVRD
# T7 sequence (P49662 290-377 limits assumed): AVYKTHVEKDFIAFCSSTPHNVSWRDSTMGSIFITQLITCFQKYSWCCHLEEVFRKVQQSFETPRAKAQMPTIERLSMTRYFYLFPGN
# Caspase 3 [5] = molecular target: T5, Caspase 3; conditions: cited from earlier work
# granzyme B = conditions: cited from earlier work
# [6] = Plasma protein binding, equilibrium dialysis in 100% plasma; format: in vitro ADME, human; conditions: human plasma, 100% plasma, equilibrium dialysis
# [7] = Aqueous degradation study by LCMS over 96 hours; format: physicochemical; conditions: up to 96 hours
# cathepsin B = conditions: cited from earlier work
# trypsin = conditions: cited from earlier work
# Caspase 9 [8] = molecular target: T2, Caspase 9; conditions: read-out: Ki caspase 9; cited from earlier work
smiles,measurement,setting,value
"CC(C)(C)[C@H](NC(=O)c1ccc(N)c(Cl)c1)C(=O)N1CCC[C@H]1C(=O)N[C@H](C=O)CC(=O)O [Compound 2b, reference compound]",Ki,Caspase 6 [1],560 nM
same,IC50,Caspase 9 [2],5.07 nM
same,Ki,caspase 1,< 1 nM
same,IC50,Caspase 6 [3],> 10000 nM
same,IC50,Caspase 10,66.5 nM
same,IC50,Caspase 3 [4],> 10000 nM
same,IC50,Caspase 5,10.6 nM
same,Ki,Caspase 4,< 1 nM
same,activity against caspase 3,Caspase 3 [5],little activity
same,activity against granzyme B,granzyme B,little activity
same,Protein Binding fraction unbound,[6],0.420
same,aqueous stability (in words),[7]; acidic (pH 2),very stable
same,aqueous stability (in words),[7]; basic (pH 8),moderate
same,aqueous stability (in words),[7]; neutral (pH 7),very stable
same,activity against cathepsin B,cathepsin B,little activity
same,activity against trypsin,trypsin,little activity
same,Ki,Caspase 9 [8],1030 nM

# From publication PMC3062473 (ChemMedChem, 2010)
